Data taken from ChEMBL document CHEMBL4346677, “Compounds based on 5-(perylen-3-ylethynyl)uracil scaffold: High activity against tick-borne encephalitis virus and non-specific activity against enterovirus A” (Eur J Med Chem, 2019).
pEC50: −log10 of the molar value. In brackets after ≈: the same amount, converted by molar mass. Activity calls are given as the source filed them. The rule behind the calls is not given here.

Tested on: RD
Assay: Cytotoxicity against human RD cells assessed as formation of syncytium-like patterns of cells at 50 uM after 7 days by microscopic method
Format: cell-based
Conditions: 168 h

| SMILES | Activity |
| --- | --- |
| CC(C)(C)C(=O)OCn1c(=O)c(C#Cc2ccc3c4cccc5cccc(c6cccc2c63)c54)cn(CC(=O)NCCO)c1=O | Toxic |
| O=C(Cn1cc(C#Cc2ccc3c4cccc5cccc(c6cccc2c63)c54)c(=O)[nH]c1=O)NCCCCCCO | Toxic |
| CC(C)(C)C(=O)OCn1c(=O)c(C#Cc2ccc3c4cccc5cccc(c6cccc2c63)c54)cn(CC(=O)N(CCO)CCO)c1=O | Toxic |
| CC(C)(C)C(=O)OCn1c(=O)c(C#Cc2ccc3c4cccc5cccc(c6cccc2c63)c54)cn(CC(=O)NCCCCCCO)c1=O | Toxic |

Tested on: Echovirus
Assay: Antiviral activity against Echovirus 30 isolate 48461
Format: functional, organism-based
Conditions: not given

| SMILES | Activity |
| --- | --- |
| CC(C)(C)C(=O)OCn1c(=O)c(C#Cc2ccc3c4cccc5cccc(c6cccc2c63)c54)cn(CC(=O)NCCO)c1=O | inactive |
| O=C(Cn1cc(C#Cc2ccc3c4cccc5cccc(c6cccc2c63)c54)c(=O)[nH]c1=O)NCCCCCCO | inactive |
| CC(C)(C)C(=O)OCn1c(=O)c(C#Cc2ccc3c4cccc5cccc(c6cccc2c63)c54)cn(CC(=O)N(CCO)CCO)c1=O | inactive |
| CC(C)(C)C(=O)OCn1c(=O)c(C#Cc2ccc3c4cccc5cccc(c6cccc2c63)c54)cn(CC(=O)NCCCCCCO)c1=O | inactive |

Tested on: Poliovirus 1
Assay: Antiviral activity against poliovirus type 1 sabin 1
Format: functional, organism-based
Conditions: not given

| SMILES | Activity |
| --- | --- |
| CC(C)(C)C(=O)OCn1c(=O)c(C#Cc2ccc3c4cccc5cccc(c6cccc2c63)c54)cn(CC(=O)NCCO)c1=O | inactive |
| O=C(Cn1cc(C#Cc2ccc3c4cccc5cccc(c6cccc2c63)c54)c(=O)[nH]c1=O)NCCCCCCO | inactive |
| CC(C)(C)C(=O)OCn1c(=O)c(C#Cc2ccc3c4cccc5cccc(c6cccc2c63)c54)cn(CC(=O)N(CCO)CCO)c1=O | inactive |
| CC(C)(C)C(=O)OCn1c(=O)c(C#Cc2ccc3c4cccc5cccc(c6cccc2c63)c54)cn(CC(=O)NCCCCCCO)c1=O | inactive |

Tested on: not listed separately
Assay: Cytotoxicity against PEK cells assessed as formation of syncytium-like patterns of cells at 50 uM after 7 days by microscopic method
Format: cell-based, Sus scrofa
Conditions: pig, 168 h

| SMILES | Activity |
| --- | --- |
| CC(C)(C)C(=O)OCn1c(=O)c(C#Cc2ccc3c4cccc5cccc(c6cccc2c63)c54)cn(CC(=O)NCCO)c1=O | Toxic |
| O=C(Cn1cc(C#Cc2ccc3c4cccc5cccc(c6cccc2c63)c54)c(=O)[nH]c1=O)NCCCCCCO | Toxic |
| CC(C)(C)C(=O)OCn1c(=O)c(C#Cc2ccc3c4cccc5cccc(c6cccc2c63)c54)cn(CC(=O)N(CCO)CCO)c1=O | Toxic |
| CC(C)(C)C(=O)OCn1c(=O)c(C#Cc2ccc3c4cccc5cccc(c6cccc2c63)c54)cn(CC(=O)NCCCCCCO)c1=O | Toxic |

Tested on: not listed separately
Assay: Cytotoxicity against PEK cells assessed as reduction in cell viability after 24 hrs by microscopic method
Format: cell-based, Sus scrofa
Conditions: pig

| SMILES | CC50 at 24 h [µM] |
| --- | --- |
| CC(C)(C)C(=O)OCn1c(=O)c(C#Cc2ccc3c4cccc5cccc(c6cccc2c63)c54)cn(CC(=O)NCCO)c1=O | > 50 |
| O=C(Cn1cc(C#Cc2ccc3c4cccc5cccc(c6cccc2c63)c54)c(=O)[nH]c1=O)NCCCCCCO | > 50 |
| CC(C)(C)C(=O)OCn1c(=O)c(C#Cc2ccc3c4cccc5cccc(c6cccc2c63)c54)cn(CC(=O)N(CCO)CCO)c1=O | > 50 |
| CC(C)(C)C(=O)OCn1c(=O)c(C#Cc2ccc3c4cccc5cccc(c6cccc2c63)c54)cn(CC(=O)NCCCCCCO)c1=O | > 50 |

Tested on: not listed separately
Assay: Cytotoxicity against human RD cells assessed as reduction in cell viability after 7 days by microscopic method
Format: cell-based
Conditions: not given

| SMILES | CC50 at 168 h [µM] |
| --- | --- |
| CC(C)(C)C(=O)OCn1c(=O)c(C#Cc2ccc3c4cccc5cccc(c6cccc2c63)c54)cn(CC(=O)NCCO)c1=O | 38 |
| O=C(Cn1cc(C#Cc2ccc3c4cccc5cccc(c6cccc2c63)c54)c(=O)[nH]c1=O)NCCCCCCO | 38 |
| CC(C)(C)C(=O)OCn1c(=O)c(C#Cc2ccc3c4cccc5cccc(c6cccc2c63)c54)cn(CC(=O)N(CCO)CCO)c1=O | 14 |
| CC(C)(C)C(=O)OCn1c(=O)c(C#Cc2ccc3c4cccc5cccc(c6cccc2c63)c54)cn(CC(=O)NCCCCCCO)c1=O | 38 |

Tested on: Vero
Assay: Cytotoxicity against African green monkey Vero cells assessed as formation of syncytium-like patterns of cells at 50 uM after 7 days by microscopic method
Format: cell-based
Conditions: chlorocebus sabaeus, 168 h

| SMILES | Activity |
| --- | --- |
| CC(C)(C)C(=O)OCn1c(=O)c(C#Cc2ccc3c4cccc5cccc(c6cccc2c63)c54)cn(CC(=O)NCCO)c1=O | Toxic |
| O=C(Cn1cc(C#Cc2ccc3c4cccc5cccc(c6cccc2c63)c54)c(=O)[nH]c1=O)NCCCCCCO | Toxic |
| CC(C)(C)C(=O)OCn1c(=O)c(C#Cc2ccc3c4cccc5cccc(c6cccc2c63)c54)cn(CC(=O)N(CCO)CCO)c1=O | Toxic |
| CC(C)(C)C(=O)OCn1c(=O)c(C#Cc2ccc3c4cccc5cccc(c6cccc2c63)c54)cn(CC(=O)NCCCCCCO)c1=O | Toxic |

Tested on: not listed separately
Assay: Cytotoxicity against PEK cells assessed as reduction in cell viability after 7 days by microscopic method
Format: cell-based, Sus scrofa
Conditions: pig

| SMILES | CC50 at 168 h [µM] |
| --- | --- |
| CC(C)(C)C(=O)OCn1c(=O)c(C#Cc2ccc3c4cccc5cccc(c6cccc2c63)c54)cn(CC(=O)NCCO)c1=O | > 50 |
| O=C(Cn1cc(C#Cc2ccc3c4cccc5cccc(c6cccc2c63)c54)c(=O)[nH]c1=O)NCCCCCCO | > 50 |
| CC(C)(C)C(=O)OCn1c(=O)c(C#Cc2ccc3c4cccc5cccc(c6cccc2c63)c54)cn(CC(=O)N(CCO)CCO)c1=O | > 50 |
| CC(C)(C)C(=O)OCn1c(=O)c(C#Cc2ccc3c4cccc5cccc(c6cccc2c63)c54)cn(CC(=O)NCCCCCCO)c1=O | > 50 |

Tested on: not listed separately
Assay: Solubility of compound in 15% DMSO by spectrophotometric analysis
Format: physicochemical
Conditions: not given

| SMILES | solubility [µM] |
| --- | --- |
| CC(C)(C)C(=O)OCn1c(=O)c(C#Cc2ccc3c4cccc5cccc(c6cccc2c63)c54)cn(CC(=O)N(CCO)CCO)c1=O | 1000 (≈ 648 µg/mL) |

Tested on: not listed separately
Assay: Cytotoxicity against African green monkey Vero cells assessed as reduction in cell viability after 7 days by microscopic method
Format: cell-based
Conditions: chlorocebus sabaeus

| SMILES | CC50 at 168 h [µM] |
| --- | --- |
| CC(C)(C)C(=O)OCn1c(=O)c(C#Cc2ccc3c4cccc5cccc(c6cccc2c63)c54)cn(CC(=O)NCCO)c1=O | 38 |
| O=C(Cn1cc(C#Cc2ccc3c4cccc5cccc(c6cccc2c63)c54)c(=O)[nH]c1=O)NCCCCCCO | > 50 |
| CC(C)(C)C(=O)OCn1c(=O)c(C#Cc2ccc3c4cccc5cccc(c6cccc2c63)c54)cn(CC(=O)N(CCO)CCO)c1=O | > 50 |
| CC(C)(C)C(=O)OCn1c(=O)c(C#Cc2ccc3c4cccc5cccc(c6cccc2c63)c54)cn(CC(=O)NCCCCCCO)c1=O | > 50 |

Tested on: not listed separately
Assay: Cytotoxicity against African green monkey Vero cells assessed as reduction in cell viability after 24 hrs by microscopic method
Format: cell-based
Conditions: chlorocebus sabaeus

| SMILES | CC50 at 24 h [µM] |
| --- | --- |
| CC(C)(C)C(=O)OCn1c(=O)c(C#Cc2ccc3c4cccc5cccc(c6cccc2c63)c54)cn(CC(=O)NCCO)c1=O | 32 |
| O=C(Cn1cc(C#Cc2ccc3c4cccc5cccc(c6cccc2c63)c54)c(=O)[nH]c1=O)NCCCCCCO | 38 |
| CC(C)(C)C(=O)OCn1c(=O)c(C#Cc2ccc3c4cccc5cccc(c6cccc2c63)c54)cn(CC(=O)N(CCO)CCO)c1=O | 38 |
| CC(C)(C)C(=O)OCn1c(=O)c(C#Cc2ccc3c4cccc5cccc(c6cccc2c63)c54)cn(CC(=O)NCCCCCCO)c1=O | 38 |

Tested on: not listed separately
Assay: Cytotoxicity against human RD cells assessed as reduction in cell viability after 24 hrs by microscopic method
Format: cell-based
Conditions: not given

| SMILES | CC50 at 24 h [µM] |
| --- | --- |
| CC(C)(C)C(=O)OCn1c(=O)c(C#Cc2ccc3c4cccc5cccc(c6cccc2c63)c54)cn(CC(=O)NCCO)c1=O | 19 |
| O=C(Cn1cc(C#Cc2ccc3c4cccc5cccc(c6cccc2c63)c54)c(=O)[nH]c1=O)NCCCCCCO | 19 |
| CC(C)(C)C(=O)OCn1c(=O)c(C#Cc2ccc3c4cccc5cccc(c6cccc2c63)c54)cn(CC(=O)N(CCO)CCO)c1=O | 19 |
| CC(C)(C)C(=O)OCn1c(=O)c(C#Cc2ccc3c4cccc5cccc(c6cccc2c63)c54)cn(CC(=O)NCCCCCCO)c1=O | 19 |

Tested on: Enterovirus A71
Assay: Antiviral activity against Enterovirus A71 isolate 46973 infected in human RD cells assessed as reduction in virus induced cytopathic effect preincubated with viral suspension for 1 hr followed by cell addition measured after 5 to 7 days
Format: functional, organism-based
Conditions: not given

| SMILES | EC50 |
| --- | --- |
| CC(C)(C)C(=O)OCn1c(=O)c(C#Cc2ccc3c4cccc5cccc(c6cccc2c63)c54)cn(CC(=O)NCCO)c1=O | Not Active |
| O=C(Cn1cc(C#Cc2ccc3c4cccc5cccc(c6cccc2c63)c54)c(=O)[nH]c1=O)NCCCCCCO | Not Active |
| CC(C)(C)C(=O)OCn1c(=O)c(C#Cc2ccc3c4cccc5cccc(c6cccc2c63)c54)cn(CC(=O)N(CCO)CCO)c1=O | Not Active |
| CC(C)(C)C(=O)OCn1c(=O)c(C#Cc2ccc3c4cccc5cccc(c6cccc2c63)c54)cn(CC(=O)NCCCCCCO)c1=O | Not Active |

Tested on: Tick-borne encephalitis virus
Assay: Antiviral activity against TBEV Absettarov infected in PEK cells assessed as plaque reduction preincubated for 1 hr followed by overlaying with 1.26% methylcellulose and measured after 6 days by gentian violet staining-based assay
Format: functional, organism-based
Conditions: not given

| SMILES | pEC50 |
| --- | --- |
| CC(C)(C)C(=O)OCn1c(=O)c(C#Cc2ccc3c4cccc5cccc(c6cccc2c63)c54)cn(CC(=O)NCCO)c1=O | 8.68 |
| O=C(Cn1cc(C#Cc2ccc3c4cccc5cccc(c6cccc2c63)c54)c(=O)[nH]c1=O)NCCCCCCO | 8.21 |
| CC(C)(C)C(=O)OCn1c(=O)c(C#Cc2ccc3c4cccc5cccc(c6cccc2c63)c54)cn(CC(=O)N(CCO)CCO)c1=O | 9.36 |
| CC(C)(C)C(=O)OCn1c(=O)c(C#Cc2ccc3c4cccc5cccc(c6cccc2c63)c54)cn(CC(=O)NCCCCCCO)c1=O | 7.62 |
